According to ChEMBL document CHEMBL3885881, “DrugMatrix”:

Species: Rattus norvegicus
Format: toxicity, organism-based, Sprague-Dawley
Conditions: in vivo, po, 24 h, route oral GAVAGE, time 1 day, vehicle .5 % CMC; for ABSOLUTE EOSINOPHIL / ABSOLUTE LYMPHOCYTE / ABSOLUTE MONOCYTE / ABSOLUTE SEGMENTED NEUTROPHIL / BASOPHIL / EOSINOPHIL / ERYTHROCYTE COUNT / HEMATOCRIT / HEMOGLOBIN / LEUKOCYTE COUNT / LYMPHOCYTE / MEAN CORPUSCULAR HEMOGLOBIN / MEAN CORPUSCULAR HEMOGLOBIN CONCENTRATION / MEAN CORPUSCULAR VOLUME / MONOCYTE / NEUTROPHIL / NUCLEATED RED BLOOD CELLS / PLATELET COUNT: tissue Blood; for ALANINE AMINOTRANSFERASE / ALBUMIN / ALKALINE PHOSPHATASE / ASPARTATE AMINOTRANSFERASE / BLOOD UREA NITROGEN / CARBON DIOXIDE / CHLORIDE / CHOLESTEROL / CREATININE / GLUCOSE / LACTATE DEHYDROGENASE / LIPASE / PHOSPHORUS / POTASSIUM / SODIUM / TOTAL BILIRUBIN / TOTAL PROTEIN / URIC ACID: tissue Plasma
[1] = 0 mg/kg, vehicle control, dose level Control

Description: DrugMatrix - Regimen: Single

## ClC(Cl)Br [BROMODICHLOROMETHANE]
[1]
  ABSOLUTE EOSINOPHIL: 150 CELLS/uL
  ABSOLUTE LYMPHOCYTE: 13279.83 CELLS/uL
  ABSOLUTE MONOCYTE: 654.5 CELLS/uL
  ABSOLUTE SEGMENTED NEUTROPHIL: 1565.67 CELLS/uL
  BASOPHIL: 0%
  EOSINOPHIL: 1%
  ERYTHROCYTE COUNT: 5.36 x10E6/uL
  HEMATOCRIT: 33.37%
  HEMOGLOBIN: 12.52 G/DL
  LEUKOCYTE COUNT: 15.65 x10E3/uL
  LYMPHOCYTE: 84.83%
  MEAN CORPUSCULAR HEMOGLOBIN: 23.4 pg
  MEAN CORPUSCULAR HEMOGLOBIN CONCENTRATION: 37.52 G/DL
  MEAN CORPUSCULAR VOLUME: 62.32 fL
  MONOCYTE: 4.17%
  NEUTROPHIL: 10%
  NUCLEATED RED BLOOD CELLS: 0 /100WBC
  PLATELET COUNT: 1020 x10E3/uL
  ALANINE AMINOTRANSFERASE: 49 u/L
  ALBUMIN: 4.47 G/DL
  ALKALINE PHOSPHATASE: 361.17 u/L
  ASPARTATE AMINOTRANSFERASE: 78.67 u/L
  BLOOD UREA NITROGEN: 13.17 mg/dL
  CARBON DIOXIDE: 29.67 mmol/L
  CHLORIDE: 100.83 MEQ/L
  CHOLESTEROL: 82.17 mg/dL
  CREATININE: 0.15 mg/dL
  GLUCOSE: 150.83 mg/dL
  LACTATE DEHYDROGENASE: 239.17 u/L
  LIPASE: 7.83 u/L
  PHOSPHORUS: 13.82 mg/dL
  POTASSIUM: 6.62 MEQ/L
  SODIUM: 144.25 MEQ/L
  TOTAL BILIRUBIN: 0.15 mg/dL
  TOTAL PROTEIN: 6.2 G/DL
  URIC ACID: 1.57 mg/dL
430 mg/kg, dose level High
  ABSOLUTE EOSINOPHIL: 41.33 CELLS/uL
  ABSOLUTE LYMPHOCYTE: 10502.67 CELLS/uL
  ABSOLUTE MONOCYTE: 677 CELLS/uL
  ABSOLUTE SEGMENTED NEUTROPHIL: 1645.67 CELLS/uL
  BASOPHIL: 0%
  EOSINOPHIL: 0.33%
  ERYTHROCYTE COUNT: 6.1 x10E6/uL
  HEMATOCRIT: 36.03%
  HEMOGLOBIN: 13.4 G/DL
  LEUKOCYTE COUNT: 12.87 x10E3/uL
  LYMPHOCYTE: 81.67%
  MEAN CORPUSCULAR HEMOGLOBIN: 21.97 pg
  MEAN CORPUSCULAR HEMOGLOBIN CONCENTRATION: 37.2 G/DL
  MEAN CORPUSCULAR VOLUME: 59.07 fL
  MONOCYTE: 5.33%
  NEUTROPHIL: 12.67%
  NUCLEATED RED BLOOD CELLS: 0 /100WBC
  PLATELET COUNT: 1251 x10E3/uL
  ALANINE AMINOTRANSFERASE: 62 u/L
  ALBUMIN: 4.77 G/DL
  ALKALINE PHOSPHATASE: 394.67 u/L
  ASPARTATE AMINOTRANSFERASE: 108 u/L
  BLOOD UREA NITROGEN: 16.33 mg/dL
  CARBON DIOXIDE: 25 mmol/L
  CHLORIDE: 103 MEQ/L
  CHOLESTEROL: 68 mg/dL
  CREATININE: 0.18 mg/dL
  GLUCOSE: 128.67 mg/dL
  LACTATE DEHYDROGENASE: 323 u/L
  LIPASE: 10 u/L
  PHOSPHORUS: 11.43 mg/dL
  POTASSIUM: 5.73 MEQ/L
  SODIUM: 144.9 MEQ/L
  TOTAL BILIRUBIN: 0.17 mg/dL
  TOTAL PROTEIN: 6.5 G/DL
  URIC ACID: 1.7 mg/dL
